Data from ChEMBL document CHEMBL3727363, “Imidazothiadiazole derivatives as protease activated receptor 4 (PAR4) inhibitors for treating platelet aggregation” (2013).

Experiments:
[1] = biological target: T1, Proteinase-activated receptor 4 (Homo sapiens, UniProt Q96RI0); experiment: Antagonist activity against human PAR4 expressed in HEK293 cells assessed as reduction in H-Ala-Phe(4-F)-Pro-Gly-Trp-Leu-Val-Lys-Asn-Gly-NH2-induced intracellular calcium mobilization incubated for 30 mins before agonist addition by FLIPR assay; assay type: functional, cell-based
T1 sequence (Q96RI0 whole entry): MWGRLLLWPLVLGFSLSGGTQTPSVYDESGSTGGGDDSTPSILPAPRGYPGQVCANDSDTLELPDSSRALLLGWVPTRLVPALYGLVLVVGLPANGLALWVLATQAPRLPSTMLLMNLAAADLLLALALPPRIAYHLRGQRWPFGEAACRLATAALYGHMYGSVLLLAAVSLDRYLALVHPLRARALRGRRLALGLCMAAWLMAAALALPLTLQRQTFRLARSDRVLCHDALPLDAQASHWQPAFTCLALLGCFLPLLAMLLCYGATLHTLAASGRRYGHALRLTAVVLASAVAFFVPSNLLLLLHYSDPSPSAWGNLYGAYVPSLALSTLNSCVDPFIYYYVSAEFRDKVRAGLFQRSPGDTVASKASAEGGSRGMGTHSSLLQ

[2] = biological target: T2, Proteinase-activated receptor 4 (Homo sapiens) (UniProt Q96RI0); experiment: Antagonist activity against PAR4 in washed human platelets assessed as inhibition of […] alpha-thrombin-induced platelet aggregation pre-incubated for 5 mins before alpha-thrombin addition by optical aggregometry; assay type: functional
T2 sequence (whole entry): T1 sequence (Q96RI0 whole entry)

[3] = biological target: T2, Proteinase-activated receptor 4 (Homo sapiens); experiment: Antagonist activity against PAR4 in washed human platelets assessed as inhibition of 5 nM alpha-thrombin-induced platelet aggregation pre-incubated for 5 mins before alpha-thrombin addition by optical aggregometry; assay type: functional
Cynomolgus monkey [4] = experiment: Antithrombotic activity in cynomolgus monkey model of electrolytic injury-induced carotid artery thrombosis assessed as reduction in thrombosis-induced occlusion by measuring thrombus weight at 0.4 mg/kg, po dosed 1 to 2 hrs before test; assay type: functional, Macaca fascicularis; set-up: scale not given: the % may be the effect or the level left
Cynomolgus monkey [5] = experiment: Antithrombotic activity in cynomolgus monkey model of electrolytic injury-induced carotid artery thrombosis assessed as reduction in thrombosis-induced occlusion by measuring thrombus weight at 2 mg/kg, po dosed 1 to 2 hrs before test; assay type: functional, Macaca fascicularis; set-up: scale not given: the % may be the effect or the level left
Cynomolgus monkey [6] = experiment: Antithrombotic activity in cynomolgus monkey model of electrolytic injury-induced carotid artery thrombosis assessed as reduction in thrombosis-induced occlusion by measuring thrombus weight at 10 mg/kg, po dosed 1 to 2 hrs before test; assay type: functional, Macaca fascicularis; set-up: scale not given: the % may be the effect or the level left

COc1cc(OCc2cccc(OCc3ccc(OC)c(C)c3C)c2)c2cc(-c3cn4nc(OC)sc4n3)oc2c1
IC50 [1]: 5.49 nM

COc1nn2cc(-c3cc4ccc([N+](=O)[O-])cc4o3)nc2s1
IC50 [1]: 38.2 nM

COc1cccc2oc(-c3cn4nc(SC)sc4n3)cc12
IC50 [1]: 11.1 nM

COc1cc(OCc2ccccc2)c2cc(-c3cn4nc(OC)sc4n3)oc2c1
inhibition [2]: Dose-dependent effect | inhibition [3]: Dose-dependent effect

CSc1nn2cc(-c3cc4c(C(F)(F)F)cc(C)nc4o3)nc2s1
IC50 [1]: 8.15 nM

COc1cc(OCc2cccc(OCc3ccccc3)c2)c2cc(-c3cn4nc(OC)sc4n3)oc2c1
Activity (Cynomolgus monkey [4]): -9% | Activity (Cynomolgus monkey [5]): -38% | Activity (Cynomolgus monkey [6]): -38%
